Laboratory results reported in US8354438B2, “Neurological functions” (priority 2001, dated 2013).
Where a name gives a salt, the structure may show the parent alone. Read-outs that look alike come from different tables or passages of the source. Marks after values point to notes of the source that are not given here.

Key:
[1] = tested on: children with Autistic spectrum disorders; details: for Rec. Speech Age (N = 31) / CARS (N = 35) / Exp. Speech Age (N = 31): Group I combined with Group II
Source text: American Psychiatric Association. Diagnostic and Statistical Manual of Mental Disorders (4th ed.). Washington, D.C.: Author 1994. Diagnosis was confirmed by a pediatric neurologist after completing a comprehensive neurological evaluation and also by a clinical interview with a clinical psychologist. No child was excluded based upon intelligence estimate or developmental language level.
We included patients with abnormal electroencephalograns (EEGs) as they represent an important section of the ASD population. Hollander, E. et al., J. Clin. Psychiatry 2001; 62(7): 530-534. […] Hollander, E. et al., J. Clin. Psychiatry 2001; 62(7): 530-534 DiMartino, A. and Tuchman, R. F., Pediatric Neurology 2001; 25(3): 199-207. Other patients were maintained on corticosteroids (N=6, pulse-dose prednisone or prednisolone), CNS stimulants (N=8, dextroamphetamine/amphetamine or methylphenidate), antidepressants (N=7, fluoxetine hydrochloride or paroxetine), antipsychotics (N=4, risperidone), or alpha adrenergic blocking agents (N=9, clonidine).
The standard donepezil dosage recommendation of 5 milligrams was halved in accordance with pediatric protocols to arrive at a quantity of 2.5 milligrams. The duration of the double-blind, parallel trial was six weeks, at which time all subjects entered open-label treatment for an additional six weeks.
The dose was lowered to 1.25 milligrams or discontinued throughout the 12-week trial if adverse events persisted for more than one week (e.g., irritability, hyperactivity, or gastrointestinal problems). The maximum daily dose was 2.5 milligrams. The medication was adjusted by halving the dose (1.25 mg) if parents noted their children to have tolerable yet persistent gastrointestinal distress, hyperactivity, or irritability. Medication was discontinued if GI intolerability or changes in behavior were considered to be an adverse event (i.e., persisted for more than […]). Medication was administered at dinnertime, unless restlessness occurred in sleep, in which case administration was changed to an earlier time in the day. Dinnertime was selected as the preferred administration time in an attempt to alleviate gastrointestinal side effects observed in the dementia population.
All staff, including nurses, were blinded to the status of the patients on either placebo or drug during the six-week double-blind phase. Patient progress and side effects were monitored at the scheduled appointments by study coordinators, nursing staff, and the primary investigator. Gardner's Receptive One-Word Picture Vocabulary Test (ROWPVT), the EOWPVT-R, and the Childhood Autism Rating Scale (CARS) were administered at baseline, 6-week, and 12-week follow-up visits by the same study coordinator (R.T.):
Outcome Measures: The Receptive One-Word Picture Vocabulary Test, Gardner, M. F. Receptive One-Word Picture Vocabulary Test: ROWPVT. Novato, Calif.: Academic Therapy Publications 1985, examines a child's understanding of language and is an effective tool for assessing receptive language in children with expressive language difficulties. The test was developed for children ages two through twelve. Participants are shown a group of four pictures and asked to point to the picture corresponding to the word presented aurally by the clinician. The test is completed when the child makes six errors of eight consecutive items.
The Expressive One-Word Picture Vocabulary Test—Revised can be used as a tool to determine auditory-visual-verbal association ability as well as expressive language functioning in young children ages two through 12. Gardner, M. F. Expressive One-Word Picture Vocabulary Test (Revised): EOWPVT-R. Novato, Calif.: Academic Therapy Publications 1990. The test was developed to address general concrete concepts, grouping, abstract concepts, and descriptive concepts.

children with ASD = test: Subsequent long-term observation of children with ASD on DH; type: in vivo, human
Source text: We have subsequently followed over 100 children with ASD on DH for up to 20 months since the conclusion of this study. […] Further long-term use of cholinesterase inhibitors may lead to greater understanding of the possible ability to sustain new neuronal connections in a brain that has more neuronal plasticity than the elderly with Alzheimer's Disease.

Helicobacter pylori = details: Matsukura and Tanaka 2000; cited from earlier work
carnosinase = details: compared with the parent compound carnosine; Boldyrev 2000; cited from earlier work
[2] = Group I (DH), Baseline to Week 6, placebo group 30%
[3] = Group I (DH, DH) N = 23, BASELINE
[4] = Group I (DH, DH), DH 2.5 milligrams, 6-WEEK, p < .05, BL compared to 6 week
[5] = Group I (DH, DH), DH 2.5 milligrams, 12-WEEK, p < .05, BL compared to 6 and 12 week

For `COc1cc2c(cc1OC)C(=O)C(CC1CCN(Cc3ccccc3)CC1)C2` (stereo not shown) [DH, donepezil hydrochloride], the “children with CARS change scores ([Baseline]-[6 Week score]) indicating improvement of 3.0 or greater” value [1, 2] was 50%, the “children with clinically meaningful worsening of CARS scores” value [1, 2] was 12.5% and the CARS [1, 3] was 34.7 (SD = 7.7). For the same compound, the “Exp. Speech Age (mos.)” value [1, 3] was 35.7 (SD = 27.8) mos, the “Rec. Speech Age (mos.)” value [1, 3] was 38.8 (SD = 23.5) mos and the CARS ([1]; Group I (DH, DH), DH 2.5 milligrams, 6-WEEK) was 33.3 (SD = 8.0). The “Exp. Speech Age (mos.)” value [1, 4] was 43.3 (SD = 27.2)* mos, the “Rec. Speech Age (mos.)” value [1, 4] was 50.3 (SD = 27.0)* mos and the “Exp. Speech Age (mos.)” value [1, 5] was 42.5 (SD = 28.5)*** mos. For the same compound, the “Rec. Speech Age (mos.)” value [1, 5] was 49.7 (SD = 34.2)*** mos, the CARS ([1]; Group I (DH, DH), DH 2.5 milligrams, 12-WEEK, p < .05, BL compared to 12 week) was 30.8 (SD = 7.9)** and the “Rec. Speech Age (N = 31)” value ([1]; 6-weeks DH, p value .002) was 53.2 (SD = 25.8). The “CARS (N = 35)” value ([1]; 6-weeks DH, p value .004) was 32.2 (SD = 8.5), the “Exp. Speech Age (N = 31)” value ([1]; 6-weeks DH, p value .044) was 43.6 (SD = 31.8) and the “CARS (N = 35)” value ([1]; BASELINE before six weeks DH) was 34.7 (SD = 7.4). The “Exp. Speech Age (N = 31)” value ([1]; BASELINE before six weeks DH) was 39.3 (SD = 27.9), the “Rec. Speech Age (N = 31)” value ([1]; BASELINE before six weeks DH) was 43.7 (SD = 22.2) and the “Exp. Speech Age (mos.)” value ([1]; Group II (Placebo, DH): six weeks placebo then six weeks DH, 12-WEEK, end of placebo 33.8 (SD = 32.9), reduced N (=16), p < .05) was 40.9 (SD = 38.8)***^@ mos. For the same compound, the “Rec. Speech Age (mos.)” value ([1]; Group II (Placebo, DH): six weeks placebo then six weeks DH, 12-WEEK, end of placebo 39.83 (SD = 27), reduced N (=16), p < .05, 6 compared to 12 week) was 87.37 (SD = 14.2)**^@ mos, the CARS ([1]; Group II (Placebo, DH): six weeks placebo then six weeks DH, 12-WEEK, end of placebo (6-WEEK) 32.9 (SD = 7.7), p < .05) was 30.9 (SD = 9.1)* and the “patients dropped from the study after the first 6 weeks who had been on DH” value ([1]; of nine patients dropped) was 6/9. For the same compound, the “patients discontinued due to diarrhea or stomach cramping” value ([1]; of the 6 dropped patients on DH) was 2 patients, the “long-term deficits or down-regulation effect” value (children with ASD; over 100 children with ASD on DH for up to 20 months) was “No obvious long-term deficits or suspected down-regulation effect” and the “regressions or lost skills after stopping the medication” value (children with ASD; patients stopped the medication after 6 additional months) was “no patients had major regressions or lost skills”.

In the case of `NCCC(=O)[N-][C@@H](Cc1c[nH]cn1)C(=O)[O-].[Zn+2]` [L-CAZ], the Helicobacter pylori inhibition (Helicobacter pylori) is listed as “inhibited”.

For `CC(=O)NCCC(=O)N[C@@H](Cc1cnc[nH]1)C(=O)O` [N-acetylcarnosine], the rate of hydrolysis (carnosinase) is listed as “negligible”.

In the case of `NCCC(=O)NCCc1c[nH]cn1` [carcinine], the rate of hydrolysis (carnosinase) is given as “negligible”.

For `Cn1cncc1C[C@H](NC(=O)CCN)C(=O)O` [ophidine, β-Alanlyl-3-methyl-L-histidine], the rate of hydrolysis (carnosinase) is listed as “much more slowly”.
